Patent publication US20170190671A1, “BIS(ARYL)CATECHOL DERIVATIVES AS HERBICIDES” (E I DU PONT DE NEMOURS AND COMPANY, priority 2014, published 2017)

What was measured:
Type in all cases: in vivo
[1] = tested on: barnyardgrass (Echinochloa crus-galli); test: Test C preemergence; conditions: Echinochloa crus-galli, pre-emergence, preemergence, scale 0 to 100, read-out: Plant response rating, Barnyardgrass
In short: (§1)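 Seeds sown in a loam soil and sand blend were treated preemergence; plants in peat-moss/vermiculite medium were sprayed at the 1- to 4-leaf stage (2-18 cm). Chemicals were in a non-phytotoxic surfactant-containing solvent. After 13 to 15 days in a greenhouse, injury was visually rated against controls on a 0-100 scale.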

[2] = tested on: blackgrass (Alopecurus myosuroides); test: Test C preemergence; conditions: Alopecurus myosuroides, pre-emergence, 336 h, preemergence, scale 0 to 100, read-out: Plant response rating, Blackgrass
In short: as §1

[3] = tested on: corn (Zea mays); test: Test C preemergence; conditions: Zea mays, pre-emergence, 336 h, preemergence, scale 0 to 100
In short: as §1

[4] = tested on: galium (catchweed bedstraw, Galium aparine); test: Test C preemergence; conditions: Galium, pre-emergence, 336 h, preemergence, scale 0 to 100, read-out: Plant response rating, Galium
In short: as §1

[5] = tested on: giant foxtail (Setaria faberii); test: Test C preemergence; conditions: Setaria faberi, pre-emergence, 336 h, preemergence, scale 0 to 100, read-out: Plant response rating, Foxtail, Giant
In short: as §1

[6] = tested on: johnsongrass (Sorghum halepense); test: Test C preemergence; conditions: Sorghum halepense, pre-emergence, 336 h, preemergence, scale 0 to 100, read-out: Plant response rating, Johnsongrass
In short: as §1

[7] = tested on: lambsquarters (Chenopodium album); test: Test C preemergence; conditions: Chenopodium album, pre-emergence, 336 h, preemergence, scale 0 to 100, read-out: Plant response rating, Lambsquarters
In short: as §1

[8] = tested on: large (Lg) crabgrass (Digitaria sanguinalis); test: Test C preemergence; conditions: Digitaria sanguinalis, pre-emergence, 336 h, preemergence, scale 0 to 100, read-out: Plant response rating, Crabgrass, Large
In short: as §1

[9] = tested on: morningglory (Ipomoea coccinea); test: Test C preemergence; conditions: Ipomoea, pre-emergence, 336 h, preemergence, scale 0 to 100, read-out: Plant response rating, Morningglory
In short: as §1

[10] = tested on: oilseed rape (Brassica napus); test: Test C preemergence; conditions: Brassica napus, pre-emergence, preemergence, scale 0 to 100, read-out: Plant response rating, Oilseed Rape
In short: as §1

[11] = tested on: pigweed (Amaranthus retroflexus); test: Test C preemergence; conditions: Amaranthus retroflexus, pre-emergence, 336 h, preemergence, scale 0 to 100, read-out: Plant response rating, Pigweed
In short: as §1

[12] = tested on: ragweed (common ragweed, Ambrosia elatior); test: Test C preemergence; conditions: Ambrosia artemisiifolia, pre-emergence, 336 h, preemergence, scale 0 to 100, read-out: Plant response rating, Ragweed
In short: as §1

[13] = tested on: soybean (Glycine max); test: Test C preemergence; conditions: Glycine max, pre-emergence, preemergence, scale 0 to 100, read-out: Plant response rating, Soybean
In short: as §1

[14] = tested on: velvetleaf (Abutilon theophrasti); test: Test C preemergence; conditions: Abutilon theophrasti, pre-emergence, preemergence, scale 0 to 100, read-out: Plant response rating, Velvetleaf
In short: as §1

[15] = tested on: winter wheat (Triticum aestivum); test: Test C preemergence; conditions: Triticum aestivum, pre-emergence, 336 h, preemergence, scale 0 to 100, read-out: Plant response rating, Wheat
In short: as §1

[16] = tested on: yellow nutsedge (Cyperus esculentus); test: Test C preemergence; conditions: Cyperus, pre-emergence, 336 h, preemergence, scale 0 to 100, read-out: Plant response rating, Nutsedge, Yellow
In short: as §1

[17] = tested on: galium (catchweed bedstraw, Galium aparine); test: Test C postemergence; conditions: Galium, post-emergence, 336 h, Postemergence, scale 0 to 100, read-out: Plant response rating, Galium
Description: (§2) Seeds of plant species selected from blackgrass (Alopecurus myosuroides), Italian ryegrass (Lolium multiflorum), winter wheat (Triticum aestivum), galium (catchweed bedstraw, Galium aparine), corn (Zea mays), large (Lg) crabgrass (Digitaria sanguinalis), giant foxtail (Setaria faberii), johnsongrass (Sorghum halepense), lambsquarters (Chenopodium album), morningglory (Ipomoea coccinea), yellow nutsedge (Cyperus esculentus), pigweed (Amaranthus retroflexus), ragweed (common ragweed, Ambrosia elatior), soybean (Glycine max), barnyardgrass (Echinochloa crus-galli), oilseed rape (Brassica napus), waterhemp (common waterhemp, Amaranthus rudis), and velvetleaf (Abutilon theophrasti) were planted into a blend of loam soil and sand and treated preemergence with test chemicals formulated in a non-phytotoxic solvent mixture which included a surfactant.
(§3) At the same time, plants selected from these crop and weed species and also chickweed (common chickweed, Stellaria media), kochia (Kochia scoparia), and wild oat (Avena fatua), were planted in pots containing Redi-Earth® planting medium (Scotts Company, 14111 Scottslawn Road, Marysville, Ohio 43041) comprising spaghnum peat moss, vermiculite, wetting agent and starter nutrients and treated with postemergence applications of test chemicals formulated in the same manner. Plants ranged in height from 2 to 18 cm (1- to 4-leaf stage) for postemergence treatments. Treated plants and controls were maintained in a greenhouse for 13 to 15 days, after which time all species were compared to controls and visually evaluated. Plant response ratings, summarized in Table C, are based on a scale of 0 to 100 where 0 is no effect and 100 is complete control. A dash (-) response means no test result.

[18] = tested on: kochia (Kochia scoparia); test: Test C postemergence; conditions: Bassia scoparia, post-emergence, Postemergence, scale 0 to 100, read-out: Plant response rating, Kochia
Description: as §2, §3

[19] = tested on: large (Lg) crabgrass (Digitaria sanguinalis); test: Test C postemergence; conditions: Digitaria sanguinalis, post-emergence, 336 h, Postemergence, scale 0 to 100, read-out: Plant response rating, Crabgrass, Large
Description: as §2, §3

[20] = tested on: morningglory (Ipomoea coccinea); test: Test C postemergence; conditions: Ipomoea, post-emergence, 336 h, Postemergence, scale 0 to 100, read-out: Plant response rating, Morningglory
Description: as §2, §3

[21] = tested on: velvetleaf (Abutilon theophrasti); test: Test C postemergence; conditions: Abutilon theophrasti, post-emergence, Postemergence, scale 0 to 100, read-out: Plant response rating, Velvetleaf
Description: as §2, §3

[22] = tested on: winter wheat (Triticum aestivum); test: Test C postemergence; conditions: Triticum aestivum, post-emergence, 336 h, Postemergence, scale 0 to 100, read-out: Plant response rating, Wheat
Description: as §2, §3

Compound: N#Cc1cccc(Oc2ncc(Cl)cn2)c1Oc1ncc(Cl)cn1 [Compound 3, 2,3-bis[(5-chloro-2-pyrimidinyl)oxy]benzonitrile]
- pest or weed control at 31 g/ha ([1]; 31 g ai/ha): 80%
- pest or weed control at 62 g/ha ([1]; 62 g ai/ha): 100%
- pest or weed control at 125 g/ha ([1]; 125 g ai/ha): 100%
- pest or weed control at 250 g/ha ([1]; 250 g ai/ha): 100%
- pest or weed control at 31 g/ha ([2]; 31 g ai/ha): 70%
- pest or weed control at 62 g/ha ([2]; 62 g ai/ha): 90%
- pest or weed control at 125 g/ha ([2]; 125 g ai/ha): 90%
- Corn plant response rating (crop injury, 0 = no effect, 100 = complete kill) at 31 g/ha ([3]; 31 g ai/ha): 20%
- Corn plant response rating (crop injury, 0 = no effect, 100 = complete kill) at 62 g/ha ([3]; 62 g ai/ha): 70%
- Corn plant response rating (crop injury, 0 = no effect, 100 = complete kill) at 125 g/ha ([3]; 125 g ai/ha): 85%
- pest or weed control at 31 g/ha ([4]; 31 g ai/ha): 90%
- pest or weed control at 62 g/ha ([4]; 62 g ai/ha): 90%
- pest or weed control at 125 g/ha ([4]; 125 g ai/ha): 90%
- pest or weed control at 31 g/ha ([5]; 31 g ai/ha): 100%
- pest or weed control at 62 g/ha ([5]; 62 g ai/ha): 100%
- pest or weed control at 125 g/ha ([5]; 125 g ai/ha): 100%
- pest or weed control at 31 g/ha ([6]; 31 g ai/ha): 45%
- pest or weed control at 62 g/ha ([6]; 62 g ai/ha): 75%
- pest or weed control at 125 g/ha ([6]; 125 g ai/ha): 100%
- pest or weed control at 31 g/ha ([7]; 31 g ai/ha): 100%
- pest or weed control at 62 g/ha ([7]; 62 g ai/ha): 100%
- pest or weed control at 125 g/ha ([7]; 125 g ai/ha): 100%
- pest or weed control at 31 g/ha ([8]; 31 g ai/ha): 100%
- pest or weed control at 62 g/ha ([8]; 62 g ai/ha): 100%
- pest or weed control at 125 g/ha ([8]; 125 g ai/ha): 100%
- pest or weed control at 31 g/ha ([9]; 31 g ai/ha): 45%
- pest or weed control at 62 g/ha ([9]; 62 g ai/ha): 98%
- pest or weed control at 125 g/ha ([9]; 125 g ai/ha): 100%
- plant injury at 31 g/ha ([10]; 31 g ai/ha): 90%
- plant injury at 62 g/ha ([10]; 62 g ai/ha): 95%
- plant injury at 125 g/ha ([10]; 125 g ai/ha): 95%
- plant injury at 250 g/ha ([10]; 250 g ai/ha): 95%
- pest or weed control at 31 g/ha ([11]; 31 g ai/ha): 100%
- pest or weed control at 62 g/ha ([11]; 62 g ai/ha): 100%
- pest or weed control at 125 g/ha ([11]; 125 g ai/ha): 100%
- pest or weed control at 31 g/ha ([12]; 31 g ai/ha): 90%
- pest or weed control at 125 g/ha ([12]; 125 g ai/ha): 90%
- pest or weed control at 250 g/ha ([12]; 250 g ai/ha): 100%
- plant injury at 31 g/ha ([13]; 31 g ai/ha): 40%
- plant injury at 62 g/ha ([13]; 62 g ai/ha): 40%
- plant injury at 125 g/ha ([13]; 125 g ai/ha): 85%
- plant injury at 250 g/ha ([13]; 250 g ai/ha): 95%
- pest or weed control at 31 g/ha ([14]; 31 g ai/ha): 80%
- pest or weed control at 62 g/ha ([14]; 62 g ai/ha): 100%
- pest or weed control at 125 g/ha ([14]; 125 g ai/ha): 100%
- pest or weed control at 250 g/ha ([14]; 250 g ai/ha): 100%
- plant injury at 31 g/ha ([15]; 31 g ai/ha): 5%
- plant injury at 62 g/ha ([15]; 62 g ai/ha): 45%
- plant injury at 125 g/ha ([15]; 125 g ai/ha): 90%
- plant injury at 250 g/ha ([15]; 250 g ai/ha): 90%
- pest or weed control at 31 g/ha ([16]; 31 g ai/ha): 5%
- pest or weed control at 62 g/ha ([16]; 62 g ai/ha): 15%
- pest or weed control at 125 g/ha ([16]; 125 g ai/ha): 55%
- pest or weed control at 31 g/ha ([17]; 31 g ai/ha): 50%
- pest or weed control at 62 g/ha ([17]; 62 g ai/ha): 70%
- pest or weed control at 125 g/ha ([17]; 125 g ai/ha): 95%
- pest or weed control at 250 g/ha ([17]; 250 g ai/ha): 95%
- pest or weed control at 31 g/ha ([18]; 31 g ai/ha): 90%
- pest or weed control at 62 g/ha ([18]; 62 g ai/ha): 90%
- pest or weed control at 125 g/ha ([18]; 125 g ai/ha): 95%
- pest or weed control at 250 g/ha ([18]; 250 g ai/ha): 95%
- pest or weed control at 31 g/ha ([19]; 31 g ai/ha): 10%
- pest or weed control at 62 g/ha ([19]; 62 g ai/ha): 10%
- pest or weed control at 125 g/ha ([19]; 125 g ai/ha): 15%
- pest or weed control at 250 g/ha ([19]; 250 g ai/ha): 85%
- pest or weed control at 31 g/ha ([20]; 31 g ai/ha): 85%
- pest or weed control at 62 g/ha ([20]; 62 g ai/ha): 90%
- pest or weed control at 125 g/ha ([20]; 125 g ai/ha): 90%
- pest or weed control at 250 g/ha ([20]; 250 g ai/ha): 98%
- pest or weed control at 31 g/ha ([21]; 31 g ai/ha): 35%
- pest or weed control at 62 g/ha ([21]; 62 g ai/ha): 70%
- pest or weed control at 125 g/ha ([21]; 125 g ai/ha): 70%
- pest or weed control at 250 g/ha ([21]; 250 g ai/ha): 80%
- plant injury at 31 g/ha ([22]; 31 g ai/ha): 0%
- plant injury at 62 g/ha ([22]; 62 g ai/ha): 0%
- plant injury at 125 g/ha ([22]; 125 g ai/ha): 10%
- plant injury at 250 g/ha ([22]; 250 g ai/ha): 15%
